Values after ≈ are worked out from the molar mass of the structure shown.
Tests used:
[1] = system: K. pneumonia (ATCC 43816); assay: Minimal Inhibitory Concentration (MIC) assay, K. pneumonia; format: cell-based; conditions: Klebsiella pneumoniae; K. pneumoniae ATCC43816, CAMHB, 20 hours at 35° C.; read-out: MIC K. pneumoniae ATCC43816
Method: (§1) Example 122: Minimal Inhibitory Concentration Protocol (MIC) Assay
(§2) The in vitro potency of compounds to inhibit E. coli (ATCC 25922) and K. pneumonia (ATCC 43816) growth was assessed by MIC (Minimal Inhibitory Concentration) assay. Samples were prepared from 10 mM DMSO stock solutions. After serial 2-fold dilution in DMSO in a master plate (Greiner, Cat No: 651201), 180 μL sterile distilled water was added to 20 μL each aliquot of the samples. Then 10 μL diluted compounds were transferred into a new assay plate (Costar, 3599).
(§3) The growth medium Cation-Adjusted Mueller Hinton Broth (CAMHB) was prepared by adding the 20 mg per liter CaCl2) and 20 mg per liter MgCl2 into the MHB medium (Jianglai Company, sterilized).
(§4) Vials of each of the test microorganisms were maintained frozen in the vapor phase of a liquid nitrogen freezer. The bacteria E. coli ATCC 25922 (KWIKSTIK, 0335K) and K. pneumonia ATCC 43816 were taken out from liquid nitrogen freezer, then thawed in room temperature, and diluted in the CAMHB medium to achieve a final inoculum of 5×10^5 CFU/mL. 90 μL CAMHB with bacteria was dispensed to the assay plate and pipetted 5 times.
(§5) Then the assay plates were incubated for 20 hours at 35° C. in ambient air. Following incubation, the MIC (μg/mL), the lowest concentration of drug that inhibits visible growth of the microorganism was read and recorded throw the microscope.

[2] = target: Escherichia coli LpxH (UDP-2,3-diacylglucosamine hydrolase) (Escherichia coli (strain K12), UniProt P43341); assay: 50% Inhibitory Concentration (IC50) to LpxH, UMP/CMP-Glo Glycosyltransferase Assay kit; format: biochemical
Sequence of Escherichia coli LpxH (UDP-2,3-diacylglucosamine hydrolase) (P43341 whole entry): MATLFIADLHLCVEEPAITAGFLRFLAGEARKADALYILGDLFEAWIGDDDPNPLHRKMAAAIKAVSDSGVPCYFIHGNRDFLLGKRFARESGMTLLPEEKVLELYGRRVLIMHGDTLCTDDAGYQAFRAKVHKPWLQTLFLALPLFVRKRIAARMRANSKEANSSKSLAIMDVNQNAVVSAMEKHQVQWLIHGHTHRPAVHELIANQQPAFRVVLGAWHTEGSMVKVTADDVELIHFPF
Method: Example 121: 50% Inhibitory Concentration (IC50) to UDP-2,3-diacylglucosamine hydrolase (LpxH)
The inhibitory potency of molecules to UDP-2,3-diacylglucosamine hydrolase (LpxH) was determined using the UMP/CMP-Glo™ Glycosyltransferase Assay kit. LpxH hydrolyzes the pyrophosphate bond of UDP-2,3-diacylglucosamine (UDP-DAG) to yield 2,3-diacylglucosamine 1-phosphate (lipid X) and UMP. The assay kit could quantify the UMP production by convert the UMP to ATP and generate light in a luciferase reaction. The compound's effect on the LpxH activity is detected by measuring the light using a luminometer (Envision).

E. coli (ATCC 25922) = assay: Minimal Inhibitory Concentration (MIC) assay, E. coli; format: cell-based; conditions: Escherichia coli, ATCC25922; E. coli ATCC 25922, CAMHB, 20 hours at 35° C.; read-out: MIC E. coli ATCC 25922
Method: as §1, §2, §3, §4, §5

MIC [1] [µg/mL] | MIC (E. coli (ATCC 25922)) [µg/mL] | Compound | IC50 [2] [nM]
60.9 (≈ 100 µM) | 30.4 (≈ 50 µM) | O=C1O[C@@H]2[C@@H](O)[C@H](CO)[C@@H](O)O[C@@H]2N1c1ccc(S(=O)(=O)N2CCN(c3cc(C(F)(F)F)cc(Cl)n3)CC2)cc1 [Example 23, (3aS,5S,6S,7S,7aR)-3-[4-[4-[6-chloro-4-(trifluoromethyl)-2-pyridyl]piperazin-1-yl]sulfonylphenyl]-5,7-dihydroxy-6-(hydroxymethyl)-5,6,7,7a-tetrahydro-3aH-pyrano[2,3-d]oxazol-2-one] | 
5.71 (≈ 9.96 µM) | 1.91 (≈ 3.33 µM) | O=C1CC(N2CCNCC2)CN1c1ccc(S(=O)(=O)N2CCN(c3cc(C(F)(F)F)cc(Cl)n3)CC2)cc1 (centres unmarked) [Example 47, 1-[4-[4-[6-Chloro-4-(trifluoromethyl)-2-pyridyl]piperazin-1-yl]sulfonylphenyl]-4-piperazin-1-yl-pyrrolidin-2-one] | 
3.81 (≈ 6.65 µM) | 1.91 (≈ 3.33 µM) | NC1CCN(C2CC(=O)N(c3ccc(S(=O)(=O)N4CCN(c5cc(C(F)(F)F)cc(Cl)n5)CC4)cc3)C2)C1 (centres unmarked) [Example 50, 4-(3-Aminopyrrolidin-1-yl)-1-[4-[4-[6-chloro-4-(trifluoromethyl)-2-pyridyl]piperazin-1-yl]sulfonylphenyl]pyrrolidin-2-one] | 
15.5 (≈ 30.6 µM) | 7.74 (≈ 15.3 µM) | NC1CC(=O)N(c2ccc(S(=O)(=O)N3CCN(c4cc(C(F)(F)F)cc(Cl)n4)CC3)cn2)C1 (centres unmarked) [Example 62, 4-Amino-1-[5-[4-[6-chloro-4-(trifluoromethyl)-2-pyridyl]piperazin-1-yl]sulfonyl-2-pyridyl]pyrrolidin-2-one] | 
7.48 (≈ 15.4 µM) | 3.74 (≈ 7.72 µM) | Cc1cc(C(F)(F)F)nc(N2CCN(S(=O)(=O)c3ccc(N4CC(N)CC4=O)cc3)CC2)n1 (centres unmarked) [Example 65, 4-Amino-1-[4-[4-[4-methyl-6-(trifluoromethyl)pyrimidin-2-yl]piperazin-1-yl]sulfonylphenyl]pyrrolidin-2-one] | 
7.52 (≈ 15.4 µM) | 3.76 (≈ 7.71 µM) | [2H]C([2H])([2H])c1cc(C(F)(F)F)nc(N2CCN(S(=O)(=O)c3ccc(N4CC(N)CC4=O)cc3)CC2)n1 (centres unmarked) [Example 66, 4-Amino-1-[4-[4-[4-(trideuteriomethyl)-6-(trifluoromethyl)pyrimidin-2-yl]piperazin-1-yl]sulfonylphenyl]pyrrolidin-2-one] | 
1.18 (≈ 2.24 µM) | 1.18 (≈ 2.24 µM) | NC1CC(=O)N(c2ccc(S(=O)(=O)N3CCN(c4cc(Cc5ccccc5)cc(Cl)n4)CC3)cc2)C1 (centres unmarked) [Example 74, 4-Amino-1-[4-[4-(4-benzyl-6-chloro-2-pyridyl)piperazin-1-yl]sulfonylphenyl]pyrrolidin-2-one] | 
1.22 (≈ 2.21 µM) | 1.22 (≈ 2.21 µM) | NC1CC(=O)N(c2ccc(S(=O)(=O)N3CCN(c4cc(C5(c6ccccc6)CC5)cc(Cl)n4)CC3)cc2)C1 (centres unmarked) [Example 75, 4-Amino-1-[4-[4-[6-chloro-4-(1-phenylcyclopropyl)-2-pyridyl]piperazin-1-yl]sulfonylphenyl]pyrrolidin-2-one] | 
1.76 (≈ 3.13 µM) | 0.22 (≈ 0.391 µM) | NC1CC(=O)N(c2ccc(S(=O)(=O)N3CCN(c4nc(Cl)cc(C(F)(F)c5ccccc5)n4)CC3)cc2)C1 (centres unmarked) [Example 78, 4-Amino-1-[4-[4-[4-chloro-6-[difluoro(phenyl)methyl]pyrimidin-2-yl]piperazin-1-yl]sulfonylphenyl]pyrrolidin-2-one] | 
> 28.4 | > 28.4 | NC1CC(=O)N(c2ccc(S(=O)(=O)N3CCN(c4nc(C5CC5)cc(C(F)(F)c5ccccc5)n4)CC3)cc2)C1 (centres unmarked) [Example 80, 4-Amino-1-[4-[4-[4-cyclopropyl-6-[difluoro(phenyl)methyl]pyrimidin-2-yl]piperazin-1-yl]sulfonylphenyl]pyrrolidin-2-one] | 
6.98 (≈ 12.5 µM) | 4.36 (≈ 7.81 µM) | COc1nc(N2CCN(S(=O)(=O)c3ccc(N4CC(N)CC4=O)cc3)CC2)cc(C(F)(F)c2ccccc2)n1 (centres unmarked) [Example 81, 4-Amino-1-[4-[4-[6-[difluoro(phenyl)methyl]-2-methoxy-pyrimidin-4-yl]piperazin-1-yl]sulfonylphenyl]pyrrolidin-2-one] | 
2.29 (≈ 3.71 µM) | 2.29 (≈ 3.71 µM) | O=C1CC2(CNCCN2)CN1c1ccc(S(=O)(=O)N2CCN(c3cc(C(F)(F)c4ccccc4)cc(Cl)n3)CC2)cc1 (centres unmarked) [Example 85, 2-[4-[4-[6-Chloro-4-[difluoro(phenyl)methyl]-2-pyridyl]piperazin-1-yl]sulfonylphenyl]-2,6,9-triazaspiro[4.5]decan-3-one] | 
1.26 (≈ 2.19 µM) | 1.26 (≈ 2.19 µM) | NCC1CCC(=O)N1c1ccc(S(=O)(=O)N2CCN(c3cc(C(F)(F)c4ccccc4)cc(Cl)n3)CC2)cc1 (centres unmarked) [Example 86, 5-(Aminomethyl)-1-[4-[4-[6-chloro-4-[difluoro(phenyl)methyl]-2-pyridyl]piperazin-1-yl]sulfonylphenyl]pyrrolidin-2-one] | 
1.8 (≈ 3.11 µM) | 0.9 (≈ 1.56 µM) | Cc1cnc(C(F)(F)c2cc(Cl)nc(N3CCN(S(=O)(=O)c4ccc(N5C[C@H](N)CC5=O)cc4)CC3)c2)cn1 [Example 111, (4R)-4-amino-1-[4-[4-[6-chloro-4-[difluoro-(5-methylpyrazin-2-yl)methyl]-2-pyridyl]piperazin-1-yl]sulfonylphenyl]pyrrolidin-2-one] | 
0.45 (≈ 0.778 µM) | 0.45 (≈ 0.778 µM) | Cc1cncc(C(F)(F)c2cc(Cl)nc(N3CCN(S(=O)(=O)c4ccc(N5C[C@H](N)CC5=O)cc4)CC3)c2)n1 [Example 112, (4R)-4-amino-1-[4-[4-[6-chloro-4-[difluoro-(6-methylpyrazin-2-yl)methyl]-2-pyridyl]piperazin-1-yl]sulfonylphenyl]pyrrolidin-2-one] | 
0.51 (≈ 0.833 µM) | 0.26 (≈ 0.424 µM) | Cc1nc(C(F)(F)c2cc(Cl)nc(N3CCN(S(=O)(=O)c4ccc(N5C[C@H](N)CC5=O)cc4)CC3)c2)cnc1Cl [Example 113, (4R)-4-amino-1-[4-[4-[6-chloro-4-[(5-chloro-6-methyl-pyrazin-2-yl)-difluoro-methyl]-2-pyridyl]piperazin-1-yl]sulfonylphenyl]pyrrolidin-2-one] | 
1.8 (≈ 3.08 µM) | 0.91 (≈ 1.56 µM) | C[C@H]1CNCC(C(F)(F)c2cc(Cl)nc(N3CCN(S(=O)(=O)c4ccc(N5C[C@H](N)CC5=O)cc4)CC3)c2)O1 (stereo partly drawn) [Example 114, (4R)-4-amino-1-[4-[4-[6-chloro-4-[difluoro-[cis-6-methylmorpholin-2-yl]methyl]-2-pyridyl]piperazin-1-yl]sulfonylphenyl]pyrrolidin-2-one] | 
1.9 (≈ 3.25 µM) | 0.97 (≈ 1.66 µM) | CC1COC(C(F)(F)c2cc(Cl)nc(N3CCN(S(=O)(=O)c4ccc(N5C[C@H](N)CC5=O)cc4)CC3)c2)CN1 (some centres unmarked) [Example 115] | 
0.94 (≈ 1.66 µM) | 0.47 (≈ 0.829 µM) | N[C@@H]1CC(=O)N(c2ccc(S(=O)(=O)N3CCN(c4cc(C(F)(F)C56CNC[C@H]5C6)cc(Cl)n4)CC3)cc2)C1 (stereo partly drawn) [Example 116, (4R)-4-amino-1-[4-[4-[4-[[cis-3-azabicyclo[3.1.0]hexan-1-yl]-difluoro-methyl]-6-chloro-2-pyridyl]piperazin-1-yl]sulfonylphenyl]pyrrolidin-2-one] | 
1.9 (≈ 3.42 µM) | 0.93 (≈ 1.67 µM) | N[C@@H]1CC(=O)N(c2ccc(S(=O)(=O)N3CCN(c4cc(C(F)(F)C5C[C@H]5CO)cc(Cl)n4)CC3)cc2)C1 (stereo partly drawn) [Example 117, (4R)-4-amino-1-[4-[4-[6-chloro-4-[trans-difluoro-[2-(hydroxymethyl)cyclopropyl]methyl]-2-pyridyl]piperazin-1-yl]sulfonylphenyl]pyrrolidin-2-one] | 
0.99 (≈ 1.66 µM) | 0.5 (≈ 0.837 µM) | NC[C@H]1CC[C@H](C(F)(F)c2cc(Cl)nc(N3CCN(S(=O)(=O)c4ccc(N5C[C@H](N)CC5=O)cc4)CC3)c2)CC1 [Example 118, (4R)-4-amino-1-[4-[4-[4-[[trans-4-(aminomethyl)cyclohexyl]-difluoro-methyl]-6-chloro-2-pyridyl]piperazin-1-yl]sulfonylphenyl]pyrrolidin-2-one] | 
0.46 (≈ 0.827 µM) | 0.46 (≈ 0.827 µM) | N[C@@H]1CC(=O)N(c2ccc(S(=O)(=O)N3CCN(c4cc(C(F)(F)[C@H]5C[C@H](O)C5)cc(Cl)n4)CC3)cc2)C1 [Example 119, (4R)-4-amino-1-[4-[4-[6-chloro-4-[trans-difluoro-(3-hydroxycyclobutyl)methyl]-2-pyridyl]piperazin-1-yl]sulfonylphenyl]pyrrolidin-2-one] | 

Compound | MIC [1] [µg/mL] | MIC (E. coli (ATCC 25922)) [µg/mL] | IC50 [2] [nM]
NC1CC(=O)N(c2ccc(S(=O)(=O)N3CCN(c4cc(C(F)(F)F)cc(Cl)n4)CC3)cc2)C1 (centres unmarked) [Example 1, 4-Amino-1-[4-[4-[6-chloro-4-(trifluoromethyl)-2-pyridyl]piperazin-1-yl]sulfonylphenyl]pyrrolidin-2-one] | 1.93 (≈ 3.83 µM) | 1.45 (≈ 2.88 µM) | 260

Reference: patent publication US20250011300A1, “PIPERAZINYLSULFONYLARYL COMPOUNDS FOR TREATMENT OF BACTERIAL INFECTIONS” (Hoffmann-La Roche Inc., priority 2021, published 2025)
